# From patent US6254883A, “Composition for transdermal delivery of drugs” (Novagent Oy, priority 1996, dated 2001)
# “Also recorded” adds a separate entry of the source.
# Assays:
# [1] = In vitro release of salicylate from anionic ion-exchange fiber through skin (epidermis) in Franz diffusion cells (experiment 3); assay type: in vitro ADME
# Source text: (§1) In the experiments below a woven cloth was used comprising a cotton textile fiber (RAIEX AK II) in which […] amine groups (-N^+ (CH3)3) had been grafted to the polysaccaride molecules. The surface weight of the cloth was 200 g/m^2. The thickness of the fiber was 30-40 μm, strength 10-20 kg s/mm^2, break stretch 15-40% and the ion exchanger capacity 3.3 mekv/g.
# (§2) For release studies circular discs (diameter 25 mm) were cut from the above mentioned anionic ion-exchange fiber cloth. The fiber discs were washed by 5% NaHCO3 solution in a dropfunnel until all chloride was exchanged (tested by silver nitrate in HNO3 solution). […] The discs containing salicylate were dried in 37° C.
# (§3) Drug release in vitro from the fiber discs at 37° C. was tested in Franz diffusion cells (Crown Glass Co. Inc., Somerville, N.J.) (FIG. 1). In the figure reference number 11 denotes the donor compartment, 14 receiver compartment, 15 thermostat, 16 stirring rod and 12 sample tube. […] The dissolution medium was pH 7.4 phosphate buffer saline (PBS, 143 mM, μ=0.15 (μ=ionic strength)) in experiment 1 and pH 7.4 phosphate buffer (6 mM, […]) in experiments 2 and 3. To assess the effect of the skin on drug release (experiment 3), a piece of epidermis 13 was placed between the fiber disc and buffer solution. At fixed times, samples of 250 μl were withdrawn and the drug concentration in the samples were determined by using HPLC (Beckman System Gold, Beckman Instrument, San Ramon, Calif.) with a Supelcosil LC-18-DB column (5 μm, 150×4.6 mm) (Supelco Inc., Rohm and Haab Co., Bellefonte, Pa.). The mobile phase was a binary mixture of methanol (40% v/v) and pH 7.0 phosphate buffer (60%). The detection wavelenght was 298 nm, and the flow rate of 1.0 ml/min, the retention time was 2.6 min.
# [2] = pH 7.0 phosphate buffer (200 mM) containing 6.27 g/l NaCl; donor 50 μg/ml; cited from earlier work
# [3] = In vitro release of salicylate from anionic ion-exchange fiber discs in Franz diffusion cells, 37° C. (experiments 1 and 2)
# Source text: as §1, §2, §3
# [4] = Tacrine (-HCl), cited from earlier work
# [5] = Delivery of tacrine from acidic fiber ion exchanger to blood through skin, Franz diffusion cell (Example 2); assay type: in vitro ADME; conditions: 30 mg tacrine per gram of fiber
# [6] = phosphate buffer 6 mM, pH 7,4
# Experimental: The cationic fiber discs were washed in 5% HCl solution in a dropfunnel until all sodium was exchanged.
# Drug release from the fiber discs was tested in vitro in Franz diffusion cells (Crown Glass Co., Somerville, N.J.) at 37 C. The fiber discs were placed in the diffusion cells so that one side of the cationic ion-exchange fiber was exposed to the dissolution medium (phosphate-buffer6 mM, pH 7,4). Surface area of the fiber discs exposed to the buffer was 0,64 cm^2. […] The column used was Supelcosil LC-18-DB (5 m, 150 mm×4,6 mm), and the mobile phase included 22% of acetonitrile, 1% of triethylamine, and 77% of phosphate buffer at pH 6,5. Detection wavelength was 240 nm and flow rate was 1,0 ml per min.
# [7] = Tacrine permeation across human skin in vitro, Side-by-Side diffusion chambers (Example 3); assay type: in vitro ADME
# [8] = cited from earlier work
# [9] = buffered solution pH=7; 30 mg tacrine per gram of fiber
# Experimental: An acidic fiber ion exchanger was treated with this solution, wherein the following reaction occurred:
# wherein R is the back bone of the fiber ion exchanger (polypropylene).
# The ion exchange performance of this fiber ion-exchanger was tested in a Franz diffusion cell (see FIG. 1) to
# a buffered solution (pH=7), and t
smiles,measurement,setting,value
"O=C([O-])c1ccccc1O.[Na+] [Sodium salicylate, sodium salicylate]",release kinetics through skin (in words),[1]; after initial lag time,followed zero-order kinetic after initial lag time
same,burst effect with skin (in words),[1]; with skin,the burst effect disappeared
same,lag time before steady state release,[1]; with skin,about 2 h
same,in vitro permeability through skin,[2],about 0.34 μg/cm^2 /h
same,duration of nearly constant / controlled release (in words),"[3]; anionic ion-exchange fiber, in vitro",two days; also recorded: several days
same,duration of initial burst,"[3]; experiment 1, PBS 143 mM",< 6 h
same,release rate after initial burst (nearly constant),"[3]; experiment 1, PBS 143 mM, pH 7.4, after initial burst",20-30 μg/h/cm^2
same,release rate in the beginning of the experiment (burst),"[3]; experiment 1, PBS 143 mM, pH 7.4, initial burst",about 350 μg/h/cm^2
same,duration of constant release phase,"[3]; experiment 2, phosphate buffer 6 mM, μ=0.20",about 50 h
same,rate of salicylate release during the constant release phase,"[3]; experiment 2, phosphate buffer 6 mM, μ=0.20, pH 7.4",about 60 μg/h/cm^2
same,"release rate and released amount, phosphate buffer vs PBS (in words)","[3]; phosphate buffer (6 mM, μ=0.20) compared with PBS (143 mM, μ=0.15)","higher in phosphate buffer (6 mM, μ=0.20) than in PBS solution (143 mM, μ=0.15)"
"Nc1c2c(nc3ccccc13)CCCC2 [tacrine, 9-amino-1,2,3,4-tetrahydroacridine]",solubility in water (in words),[4],soluble in water
same,charge at physiological pH (in words),"[4]; physiological pH, assumed",assumed to carry a positive charge
same,amount of tacrine delivered to blood through skin (in words),[5],pharmacologically significant amounts
same,tacrine release rate from the cationic ion-exchange fiber,[6]; during the first 10 hours,about 375 g/h per cm^2
same,duration of initial burst of tacrine release,[6]; 37 C.,6 to 12 h
same,tacrine released from the fiber after initial burst,[6]; after initial burst of about 6-12 h,50%
same,steady-state flux of tacrine across human skin,"[7]; 5% solution, pH 7,4, in vitro","2,95 g/h per cm^2"
same,duration of constant drug delivery from the fiber across skin,[7]; cationic ion-exchange fiber,120 h
same,delivery of tacrine across the skin from the cationic ion-exchange fiber,"[7]; cationic ion-exchange fiber with 3,5% tacrine in HEPES-buffer","about 0,003 g/h per cm^2"
same,lag-time of permeation,"[7]; tacrine solution, human skin, pH 7,4",ca. 24 h
same,side-effects above clinical concentration (in words),"[8]; above about 5-30 ng/ml, oral",unwanted side-effects are more likely to take place
same,elimination half-life T1/2,"[8]; human, in vivo","1,4-3,6 h"
same,first-pass metabolism (in words),[8]; in vivo,extensive first-pass metabolism
same,peroral bioavailability,[8]; peroral,5-35%
same,amount of tacrine delivered to buffered solution (in words),[9],pharmacologically significant amounts
